The structures appear in SMILES notation.

Results on 24 molecules are retold here after patent US6262084A, “Compounds that inhibit the binding of integrins to their receptors” (Texas Biotechnology Corporation, priority 1999, dated 2001).

For this experiment, the target named is T1, α4β1 integrin (Homo sapiens, UniProt P05556+P13612).
T1 construct: Ramos cells fluorescently labeled with calcein; endogenous in cells; host or cells: Ramos cells
Briefly: Inhibition of adhesion of calcein-labeled Ramos cells to CS1 (fibronectin) peptide-conjugated ovalbumin. Format: cell-based. As to conditions: Table 1; for inhibition at 100 µM: Ramos, compound at a concentration of 100 μM, read-out: % A (percent inhibition of cell adhesion); for IC50: dose required to give 50% inhibition, Ramos cell adhesion to CS1-ovalbumin, 30 minutes at 37° C. The procedure: The ability of compounds of the present invention to inhibit binding is described in detail hereinafter in the Examples by a procedure in which a 26-amino acid peptide containing the CS1 sequence of fibroncctin with an N-terminal Cys was coupled to maleimide activated ovalbumin. Ovalbumin and CS1 conjugated ovalbumin were coated onto 96-well polystyrene plates at 5 μg/ml in TBS (50 mM Tris, pH 7.5; 150 mM NaCl) at 4° C. for 16 hours. The plates were washed three times with TBS and blocked with TBS containing 3% BSA at room temperature for 4 hours. Blocked plates were washed three times in binding buffer (TBS; 1 mM MgCl2; 1 mM CaCl2; 1 mM MnCl2) prior to assay. Ramos cells fluorescently labeled with calcein AMC-3099 were resuspended in binding buffer (10^7 cells/ml) and diluted 1:2 with same buffer with or without compound. The cells were added immediately to the wells (2.5×10^5 cells/well) and incubated for 30 minutes at 37° C. Following three washes with binding buffer, adherent cells were lysed and quantitated using a fluorometer.
IC50 is defined as the dose required to give 50% inhibition. The lower the IC50 value and the greater the percentage of inhibition, the more efficient the compound is at prevention of cell adhesion. A stands for inhibition in Table 1, and the percent inhibition indicates the inhibition of cell adhesion when compound is included in the assay at a concentration of 100 μM.

T1 sequence (P13612 34-1032): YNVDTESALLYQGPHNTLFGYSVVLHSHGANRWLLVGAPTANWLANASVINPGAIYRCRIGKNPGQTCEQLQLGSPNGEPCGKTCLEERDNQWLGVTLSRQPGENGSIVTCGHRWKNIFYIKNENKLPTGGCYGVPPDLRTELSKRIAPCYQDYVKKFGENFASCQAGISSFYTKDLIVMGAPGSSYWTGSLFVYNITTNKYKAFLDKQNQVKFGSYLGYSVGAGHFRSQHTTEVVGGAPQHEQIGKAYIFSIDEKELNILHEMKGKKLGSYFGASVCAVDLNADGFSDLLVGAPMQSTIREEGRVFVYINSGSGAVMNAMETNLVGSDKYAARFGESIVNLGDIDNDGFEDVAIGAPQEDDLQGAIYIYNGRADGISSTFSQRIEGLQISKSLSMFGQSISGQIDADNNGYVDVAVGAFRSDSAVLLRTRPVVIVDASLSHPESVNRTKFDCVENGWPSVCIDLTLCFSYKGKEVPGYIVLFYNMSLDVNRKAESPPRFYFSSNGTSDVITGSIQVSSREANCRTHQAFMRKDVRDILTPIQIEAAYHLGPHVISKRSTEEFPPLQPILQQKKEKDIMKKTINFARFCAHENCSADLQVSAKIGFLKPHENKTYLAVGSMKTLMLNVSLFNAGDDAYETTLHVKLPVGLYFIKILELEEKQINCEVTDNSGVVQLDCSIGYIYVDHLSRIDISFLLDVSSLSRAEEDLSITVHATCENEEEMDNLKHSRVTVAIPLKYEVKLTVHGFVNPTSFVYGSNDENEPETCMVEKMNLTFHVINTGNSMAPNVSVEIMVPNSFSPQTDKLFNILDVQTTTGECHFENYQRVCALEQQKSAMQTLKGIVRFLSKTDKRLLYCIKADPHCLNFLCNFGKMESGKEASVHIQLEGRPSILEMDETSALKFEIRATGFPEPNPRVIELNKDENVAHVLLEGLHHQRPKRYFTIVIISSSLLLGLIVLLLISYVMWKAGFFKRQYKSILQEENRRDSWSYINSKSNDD
T1 sequence (P05556 21-798): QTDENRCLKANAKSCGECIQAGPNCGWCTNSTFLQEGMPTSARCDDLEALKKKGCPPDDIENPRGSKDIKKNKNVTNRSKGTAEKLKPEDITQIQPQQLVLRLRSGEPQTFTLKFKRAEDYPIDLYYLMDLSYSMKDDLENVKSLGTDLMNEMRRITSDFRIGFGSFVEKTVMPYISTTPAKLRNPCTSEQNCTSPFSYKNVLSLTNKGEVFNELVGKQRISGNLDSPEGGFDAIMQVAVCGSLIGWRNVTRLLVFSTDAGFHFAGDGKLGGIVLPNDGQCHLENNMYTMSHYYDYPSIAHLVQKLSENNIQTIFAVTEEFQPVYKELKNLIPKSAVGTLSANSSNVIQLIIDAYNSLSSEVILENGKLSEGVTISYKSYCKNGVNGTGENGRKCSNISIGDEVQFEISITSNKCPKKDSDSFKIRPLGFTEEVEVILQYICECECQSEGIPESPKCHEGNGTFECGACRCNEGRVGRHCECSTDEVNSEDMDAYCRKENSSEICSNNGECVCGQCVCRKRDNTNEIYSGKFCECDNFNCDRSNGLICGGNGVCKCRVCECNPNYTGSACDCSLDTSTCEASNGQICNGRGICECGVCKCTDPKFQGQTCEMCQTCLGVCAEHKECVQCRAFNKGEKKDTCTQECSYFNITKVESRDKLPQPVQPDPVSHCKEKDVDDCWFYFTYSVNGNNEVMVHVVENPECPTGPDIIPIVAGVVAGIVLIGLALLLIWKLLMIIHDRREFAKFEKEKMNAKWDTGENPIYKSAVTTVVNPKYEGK

With `COc1ccc(SC[C@H](CCSC)NC(=O)N[C@@H](CC(=O)O)c2ccc3c(c2)OCO3)cc1` [(3S)-3-(1,3-benzodioxol-5-yl)-3-[({[(1S)-1-{[(4-methoxyphenyl)sulfanyl]methyl}-3-(methylsulfanyl)propyl]amino}carbonyl)amino]propanoic acid], the inhibition at 100 µM was 100% and the IC50 was 7000 nM.

Consider `CSCC[C@@H](CSc1ccc(NS(=O)(=O)c2ccc(C)cc2)cc1)NC(=O)N[C@@H](CC(=O)O)c1ccc2c(c1)OCO2` [(3S)-3-(1,3-benzodioxol-5-yl)-3-[({[(1S)-1-{[(4-{[(4-methylphenyl)sulfonyl]amino}phenyl)sulfanyl]methyl}-3-(methylsulfanyl)propyl]amino}carbonyl)amino]propanoic acid], for which the inhibition at 100 µM was 100% and the IC50 was 400 nM.

For `CSCC[C@@H](COc1ccccc1)NC(=O)N[C@@H](CC(=O)O)c1ccc2c(c1)OCO2` [(3S)-3-(1,3-benzodioxol-5-yl)-3-[({[(1S)-3-(methylsulfanyl)-1-(phenoxymethyl)propyl]amino}carbonyl)amino]propanoic acid], the inhibition at 100 µM is 100% and the IC50 is 20000 nM.

Regarding `CSCC[C@@H](CSc1ccccc1)N(C)C(=O)N[C@@H](CC(=O)O)c1ccc2c(c1)OCO2` [(3S)-3-(1,3-benzodioxol-5-yl)-3-{[(methyl{(1S)-3-(methylsulfanyl)-1-[(phenylsulfanyl)methyl]propyl}amino)carbonyl]amino}propanoic acid], the inhibition at 100 µM was 78% and the IC50 is 35000 nM.

For `CCCCC(CSc1ccccc1)OC(=O)N[C@@H](CC(=O)O)c1ccc2c(c1)OCO2` (stereo partly drawn) [(3S)-3-(1,3-benzodioxol-5-yl)-3-{[({1-[(phenylsulfanyl)methyl]pentyl}oxy)carbonyl]amino}propanoic acid], the inhibition at 100 µM was 100% and the IC50 is 6000 nM.

As for `O=C(O)C[C@H](NC(=O)NC(CSc1ccccc1)CSc1ccccc1)c1ccc2c(c1)OCO2` [(3S)-3-(1,3-benzodioxol-5-yl)-3-{[({2-(phenylsulfanyl)-1-[(phenylsulfanyl)methyl]ethyl}amino)carbonyl]amino}propanoic acid], the inhibition at 100 µM is 99% and the IC50 was 1500 nM.

In the case of `O=C(O)C[C@H](NC(=O)N[C@H](COCc1ccccc1)CSCc1ccccc1)c1ccc2c(c1)OCO2` [(3S)-3-(1,3-benzodioxol-5-yl)-3-{[({(1R)-2-(benzyloxy)-1-[(benzylthio)methyl]ethyl}amino)carbonyl]amino}propanoic acid], the inhibition at 100 µM is 100% and the IC50 was 1000 nM.

Consider `O=C(O)C[C@H](NC(=O)O[C@H](COCc1ccccc1)CSCc1ccccc1)c1ccc2c(c1)OCO2` [(3S)-3-(1,3-benzodioxol-5-yl)-3-{[({(1R)-2-(benzyloxy)-1-[(benzylthio)methyl]ethyl}oxy)carbonyl]amino}propanoic acid], for which the inhibition at 100 µM is 100% and the IC50 was 10000 nM.

For the molecule `CCSC[C@@H](COCc1ccccc1)OC(=O)N[C@@H](CC(=O)O)c1ccc2c(c1)OCO2` [(3S)-3-(1,3-benzodioxol-5-yl)-3-{[({(1R)-2-(benzyloxy)-1-[(ethylthio)methyl]ethyl}oxy)carbonyl]amino}propanoic acid], the inhibition at 100 µM was 100% and the IC50 is 12000 nM.

On to `CCCC[C@@H](CSc1ccccc1)NC(=O)N[C@@H](CC(=O)O)c1ccc2c(c1)OCO2` [(3S)-3-(1,3-benzodioxol-5-yl)-3-{[({(1S)-1-[(phenylsulfanyl)methyl]pentyl}amino)carbonyl]amino}propanoic acid], for which the inhibition at 100 µM is 100% and the IC50 is 400 nM.

On to `CCCC[C@@H](CSc1ccc(NC(=O)Nc2ccccc2C)cc1)OC(=O)N[C@@H](CC(=O)O)c1ccc2c(c1)OCO2` [(3S)-3-(1,3-benzodioxol-5-yl)-3-{[({(1S)-1-[({4-[(2-toluidinocarbonyl)amino]phenyl}thio)methyl]pentyl}oxy)carbonyl]amino}propanoic acid], for which the inhibition at 100 µM was 100% and the IC50 was 300 nM.

For the molecule `O=C(O)C[C@H](NC(=O)N[C@@H](COCc1ccccc1)CSc1ccccc1)c1ccc2c(c1)OCO2` [(3S)-3-(1,3-benzodioxol-5-yl)-3-{[({(1S)-2-(benzyloxy)-1-[(phenylthio)methyl]ethyl}amino)carbonyl]amino}propanoic acid], the inhibition at 100 µM was 100% and the IC50 was 300 nM.

In the case of `O=C(O)C[C@H](NC(=O)N[C@@H](CSCc1ccccc1)CSc1ccccc1)c1ccc2c(c1)OCO2` [(3S)-3-(1,3-benzodioxol-5-yl)-3-{[({(1S)-2-(benzylsulfanyl)-1-[(phenylsulfanyl)methyl]ethyl}amino)carbonyl]amino}propanoic acid], the inhibition at 100 µM is 100% and the IC50 is 20 nM.

For the molecule `O=C(O)C[C@H](NC(=O)O[C@@H](CSCc1ccccc1)CSc1ccccc1)c1ccc2c(c1)OCO2` [(3S)-3-(1,3-benzodioxol-5-yl)-3-{[({(1S)-2-(benzylthio)-1-[(phenylthio)methyl]ethyl}oxy)carbonyl]amino}propanoic acid], the inhibition at 100 µM was 100% and the concentration for half-maximal inhibition (IC50) is 3000 nM.

In the case of `CCSC[C@@H](CSc1ccccc1)NC(=O)N[C@@H](CC(=O)O)c1ccc2c(c1)OCO2` [(3S)-3-(1,3-benzodioxol-5-yl)-3-{[({(1S)-2-(ethylsulfanyl)-1-[(phenylsulfanyl)methyl]ethyl}amino)carbonyl]amino}propanoic acid], the inhibition at 100 µM is 100% and the IC50 was 50 nM.

With `CCSC[C@@H](CSc1ccccc1)OC(=O)N[C@@H](CC(=O)O)c1ccc2c(c1)OCO2` [(3S)-3-(1,3-benzodioxol-5-yl)-3-{[({(1S)-2-(ethylthio)-1-[(phenylthio)methyl]ethyl}oxy)carbonyl]amino}propanoic acid], the inhibition at 100 µM is 100% and the half-inhibitory concentration (IC50) is 1000 nM.

Regarding `CSC[C@@H](CSc1ccccc1)NC(=O)N[C@@H](CC(=O)O)c1ccc2c(c1)OCO2` [(3S)-3-(1,3-benzodioxol-5-yl)-3-{[({(1S)-2-(methylsulfanyl)-1-[(phenylsulfanyl)methyl]ethyl}amino)carbonyl]amino}propanoic acid], the inhibition at 100 µM was 100% and the IC50 is 100 nM.

On to `CCCCCCCCSC[C@@H](CSc1ccccc1)NC(=O)N[C@@H](CC(=O)O)c1ccc2c(c1)OCO2` [(3S)-3-(1,3-benzodioxol-5-yl)-3-{[({(1S)-2-(octylsulfanyl)-1-[(phenylsulfanyl)methyl]ethyl}amino)carbonyl]amino}propanoic acid], for which the inhibition at 100 µM is 98% and the IC50 was 5000 nM.

Turning to `O=C(O)C[C@H](NC(=O)O[C@@H](COCCc1ccccc1)CSc1ccccc1)c1ccc2c(c1)OCO2` [(3S)-3-(1,3-benzodioxol-5-yl)-3-{[({(1S)-2-(phenethyloxy)-1-[(phenylthio)methyl]ethyl}oxy)carbonyl]amino}propanoic acid], the inhibition at 100 µM is 100% and the IC50 was 4000 nM.

`CCCSC[C@@H](CSc1ccccc1)NC(=O)N[C@@H](CC(=O)O)c1ccc2c(c1)OCO2` [(3S)-3-(1,3-benzodioxol-5-yl)-3-{[({(1S)-2-(phenylsulfanyl)-1-[(propylsulfanyl)methyl]ethyl}amino)carbonyl]amino}propanoic acid]: the inhibition at 100 µM was 100% and the IC50 was 500 nM.

Regarding `O=C(O)C[C@H](NC(=O)N[C@@H](CSCCCc1ccccc1)CSc1ccccc1)c1ccc2c(c1)OCO2` [(3S)-3-(1,3-benzodioxol-5-yl)-3-{[({(1S)-2-[(3-phenylpropyl)sulfanyl]-1-[(phenylsulfanyl)methyl]ethyl}amino)carbonyl]amino}propanoic acid], the inhibition at 100 µM was 100% and the IC50 was 2000 nM.

On to `O=C(O)CSC[C@@H](CSc1ccccc1)NC(=O)N[C@@H](CC(=O)O)c1ccc2c(c1)OCO2` [(3S)-3-(1,3-benzodioxol-5-yl)-3-{[({(1S)-2-[(carboxymethyl)sulfanyl]-1-[(phenylsulfanyl)methyl]ethyl}amino)carbonyl]amino}propanoic acid], for which the inhibition at 100 µM is 100% and the IC50 is 2000 nM.

Regarding `O=C(O)C[C@H](NC(=O)N[C@@H](CSCC1CC1)CSc1ccccc1)c1ccc2c(c1)OCO2` [(3S)-3-(1,3-benzodioxol-5-yl)-3-{[({(1S)-2-[(cyclopropylmethyl)thio]-1-[(phenylthio)methyl]ethyl}amino)carbonyl]amino}propanoic acid], the inhibition at 100 µM is 100% and the IC50 is 200 nM.

Consider `CCOC[C@@H](CSc1ccccc1)OC(=O)N[C@@H](CC(=O)O)c1ccc2c(c1)OCO2` [(3S)-3-(1,3-benzodioxol-5-yl)-3-{[({(1S)-2-ethoxy-1-[(phenylthio)methyl]ethyl}oxy)carbonyl]amino}propanoic acid], for which the inhibition at 100 µM is 100% and the concentration for half-maximal inhibition (IC50) is 5000 nM.
